The values below come from patent US5814646A, “Inhibitors of amyloid beta-protein production” (Eli Lilly and Company, priority 1995, dated 1998).

One assay relates to Aβ production in 293 751 SWE and CHO 751 SWE cells (transfected with APP-751 Swedish mutation). Kind of assay: Aβ production inhibition activity in cells (Aβ ELISA of conditioned media, normalized for cytotoxicity by MTT). To be noted: 2.5 μg/ml. Format: cell-based. As for the experimental part:
Two cell lines (human kidney cell line 293 and Chinese hamster ovary cell line CHO) were stably transfected with the gene for APP-751 containing the double mutation Lys651 -Met652 to Asn651 -Leu652 (APP-751 numbering) commonly called the Swedish mutation using the method described in Citron et al., (1992) Nature 360:672-674. The transfected cell lines were designated as 293 751 SWE and CHO 751 SWE, and were plated in Corning 96 well plates at 2.5×10^4 or 1×10^4 cells per well respectively in Dulbecco's minimal essential media plus 10% fetal bovine serum. Following overnight incubation at 37° C. in an incubator equilibrated with 10% carbon dioxide (CO2), the media were removed and replaced with 200 μL per well of media containing a test compound. After a two hour pretreatment period, the media were again removed and replaced with fresh media containing the test compound and the cells were incubated for an additional two hours.
Test compound stocks were prepared in DMSO such that at the final concentration used in the treatment, the concentration of DMSO did no exceed 0.5%. After treatment, plates were centrifuged in a Beckman GPR at 1200 rpm for five minutes at room temperature to pellet cellular debris from the conditioned media. From each well, 100 μL of conditioned media were transferred into an ELISA plate precoated with antibody 266 against βAP-13-28 (Seubert et al., supra.) and stored at 4° C. overnight. An ELISA assay employing labeled antibody 6C6 (against βAP-1-16) was run the next day to measure the amount of Aβ produced.
Cytotoxic effects of the test compounds were measured by a modification of the method of Hansen et al., (1989) J. Immun. Meth. 119:203-210. To the cells remaining in the tissue culture plate, was added 25 μL of a 3, (4,5-dimethylthiazol-2-yl)2,5-diphenyltetrazolium bromide (MTT) stock solution (5 mg/mL) to a final concentration of […]. Cells were incubated at 37° C. for one hour, and cellular activity was stopped by the addition of an equal volume of MTT lysis buffer (20% w/v sodium dodecylsulfate in 50% DMF, pH 4.7). Complete extraction was achieved by overnight shaking at room temperature. The difference in the OD562 nm and the OD650 nm was measured in a Molecular Devices UVmax microplate reader as an indicator of the cellular viability.
The results of the Aβ ELISA were fit to a standard curve and expressed as ng/mL Aβ peptide. In order to normalize for cytotoxicity, these Aβ results were divided by the MTT results and expressed as a percentage of the results from a drug -free control.
The test compounds were assayed for Aβ production inhibition activity in cells at […] using the test. The results presented in Table 1 are the mean and standard deviation of at least six replicate assays. IC50 means the concentration of test compound in micromoles/liter required to inhibit Aβ production by 50%.
Consider `CC1(C)CC(C(=O)Nc2ccc(Cl)c(Cl)c2)CC(C)(C)N1` [Compound 231], for which the “Aβ Production Inhibition Activity, % inhibition @ 2.5 μg/ml” value is recorded as 40-51%.

Still in this assay, the particulars now being: 5 μg/ml.
As to `CCCCCCNC(=S)N(O)Cc1ccc(OCc2ccc(F)c(F)c2)cc1` [Compound 57], the inhibition at 5 µg/mL turned out to be 4%.
The molecule `ON(Cc1ccc(OCc2ccc(F)c(F)c2)cc1)C(=S)NCc1ccccc1` [Compound 56] gave an inhibition at 5 µg/mL of 28%.
`COc1cc(COc2ccc(CN(O)C(=S)NCc3ccccc3)cc2)cc(OC)c1` [Compound 60] registered an inhibition at 5 µg/mL of 17%.

Still in this assay, the particulars now being: 10 μg/ml, % of drug-free control, normalized to MTT.
On to `CCCCOc1ccc(COc2cccc(CN(O)C(=S)NCc3ccccc3)c2)cc1` [Compound 66], for which the inhibition at 10 µg/mL was 21%.
Consider `Cc1cccc(CNC(=S)N(O)Cc2ccc(-c3ccccc3)cc2)c1` [Compound 79], for which the inhibition at 10 µg/mL worked out at 15%.
The same measure, in the same setting: in the case of `CCCCCCNC(=S)N(O)C(CCCCCC)c1cccc(Oc2ccc(C(C)(C)C)cc2)c1` (stereo not shown) [Compound 37] it was 0%.
As for `O=C(Nc1ccc(Cl)c(Cl)c1)c1ncco1` [Compound 241], the “Aβ Production Inhibition Activity, % inhibition at 10 μg/ml” value is -8%.
The molecule `COc1ccccc1CNC(=S)Nc1ccc(Oc2ccc(C(C)(C)C)cc2)cc1` [Compound 109] came in with an inhibition at 10 µg/mL of 37%.
Molecule `CSc1ccc(NC(=O)Nc2cc(Cl)c(Cl)cc2C)cc1` [Compound 160] registered an inhibition at 10 µg/mL of 48%.
As for `CCCCCCNC(=S)N(Cc1cccc(Oc2ccc(C(C)(C)C)cc2)c1)OC` [Compound 43], the inhibition at 10 µg/mL came to 16%.
Take `CC(c1cccc(Oc2ccc(C(C)(C)C)cc2)c1)N(O)C(=S)NCc1ccc2c(c1)OCO2` (stereo not shown) [Compound 15]: the inhibition at 10 µg/mL turned out to be 28%.
Same read-out and setting: in the case of `CC(C)(C)c1cccc(Oc2ccc(NC(=S)Nc3ccccc3C(F)(F)F)cc2)c1` [Compound 189] it was 37%; in that of `CC(c1cccc(Oc2ccc(C(C)(C)C)cc2)c1)N(O)C(=S)NCc1ccc(Cl)c(Cl)c1` (stereo not shown) [Compound 2], 77%; in that of `Cc1ccc(CNC(=S)N(O)C(C)c2cccc(Oc3ccc(C(C)(C)C)cc3)c2)cc1C` (stereo not shown) [Compound 9], 62%.
Turning to `CC(C)(C)c1ccc(Oc2ccccc2NC(=S)NCc2ccc(Cl)c(Cl)c2)cc1` [Compound 183], the inhibition at 10 µg/mL came out at 24%.
The same measure, in the same setting: to `ON(Cc1ccc(-c2ccccc2)cc1)C(=S)NCc1ccc(Cl)c(Cl)c1` [Compound 76] belongs 13%.
With `CSc1ccc(NC(=O)Nc2ccc(Cl)cc2Cl)cc1` [Compound 159], testing at 10 µg/mL gave an inhibition of 4%.
Turning to `CCCc1c(COc2ccc(CN(O)C(=S)Nc3ccc(Cl)c(C(F)(F)F)c3)cc2)ccc(C(=O)c2ccccc2)c1O` [Compound 69], the inhibition at 10 µg/mL was determined as 14%.
On to `CCCc1c(NC(=S)Nc2ccc(C(C)(C)C)cc2)ccc(C(=O)c2ccccc2)c1O` [Compound 203], for which at 10 µg/mL the inhibition was 2%.

Staying with this assay, now noted: 2 h pretreatment + 2 h incubation.
As to `CCCCCCNC(=S)N(O)C(C)c1cccc(NC(=O)c2ccc(C(C)(C)C)cc2)c1` (stereo not shown) [Compound 98], the IC50 was determined as 13 µM.
Take `CC(C)(C)c1cccc(Oc2ccc(NC(=S)Nc3ccc(Cl)c(C(F)(F)F)c3)cc2)c1` [Compound 169]: the IC50 was 4.6 µM.
Same read-out and setting: to `CC(C)(C)c1ccccc1Oc1ccc(NC(=S)NCc2ccccc2)cc1` [Compound 188] belongs 9.4 µM; to `Cc1nnc(NC(=O)Nc2ccc(Cl)c(Cl)c2)s1` [Compound 234, 1-(5-methyl-1,3,4-thiadiazol-2-yl)-3-(3,4-dichlorophenyl)urea], 5 µM.
Regarding `Cc1ccccc1CNC(=S)N(O)C(C)c1cccc(Oc2ccc(C(C)(C)C)cc2)c1` (stereo not shown) [Compound 5], the IC50 turned out to be 10.3 µM.
For `CCCCCCNC(=S)N(O)Cc1cccc(NC(=O)c2ccc(C(C)(C)C)cc2)c1` [Compound 85], the IC50 was 18.6 µM.
`O=C(Nc1ccc(Cl)c(Cl)c1)Nc1ccccc1Cl` [Compound 151]: the IC50 turned out to be 10.1 µM.
Regarding `CC(C)(C)c1ccc(Oc2ccc(NC(=S)NCc3ccccn3)cc2)cc1` [Compound 120], the IC50 is 15.6 µM.
Turning to `CC(C)(C)c1ccc(Oc2ccc(NC(=S)NC3CCCCC3)cc2)cc1` [Compound 119], the 50% inhibitory concentration (IC50) amounted to 15.2 µM.
On the same count and under the same terms, to `CC(C)(CCl)c1nnc(NC(=O)Nc2ccc(Cl)c(Cl)c2)s1` [Compound 238, 1-[5-(2-chloro-1,1-dimethylethyl)-1,3,4-thiadiazol-2-yl]-3-(3,4-dichlorophenyl)urea] belongs 1.4 µM; to `CC(C)(C)c1ccc(Oc2ccc(NC(=S)NCc3ccc(F)cc3F)cc2)cc1` [Compound 128], 7.3 µM.
Consider `CCCC(c1cccc(Oc2ccc(C(C)(C)C)cc2)c1)N(O)C(=S)NCc1cccc(Cl)c1` (stereo not shown) [Compound 30], for which the 50% inhibitory concentration (IC50) was found to be 9.1 µM.
On the same count and under the same terms, in the case of `S=C(Nc1ccc(Cl)cc1)Nc1ccc(Cl)c(Cl)c1` [Compound 139] it was 6.6 µM.
Same read-out and setting: to `CCCCc1ccc(Oc2cccc(C(C)N(O)C(=S)NCc3ccccc3)c2)cc1` (stereo not shown) [Compound 45] belongs 9.2 µM; to `CC(C)(C)c1ccc(Oc2ccc(NC(=S)NCc3cccc(C(F)(F)F)c3)cc2)cc1` [Compound 179], 6.5 µM.
Take `CCCCCCSc1nnc(NC(=O)Nc2ccc(Cl)c(Cl)c2)s1` [Compound 239, 1-(5-hexylthio-1,3,4-thiadiazol-2-yl)-3-(3,4-dichlorophenyl)urea]: the concentration for half-maximal inhibition (IC50) stood at 1.4 µM.
The same measure, in the same setting: in the case of `CC(C)(C)c1ccc(Oc2ccc(NC(=S)NCc3ccc(F)cc3)cc2)cc1` [Compound 113] it was 5.6 µM; in that of `O=C(Nc1ccc(Cl)c(Cl)c1)Nc1nc2ccccc2[nH]1` [Compound 140], 17.4 µM.
In the case of `CCCc1cc(C(C)(C)C)ccc1Oc1ccc(NC(=S)NCc2ccccc2)cc1` [Compound 197], the IC50 was 4.6 µM.
Regarding `O=C(Nc1ccc(Cl)c(Cl)c1)Nc1nnc(Cl)s1` [Compound 232, 1-(5-chloro-1,3,4-thiadiazol-2-yl)-3-(3,4-dichlorophenyl)urea], the IC50 amounted to 2 µM.
Consider `CCCC(c1cccc(Oc2ccc(C(C)(C)C)cc2)c1)N(O)C(=S)NCc1ccccc1` (stereo not shown) [Compound 29], for which the IC50 came to 7.5 µM.
`CC(C)(C)c1ccc(Oc2cccc(CNC(=S)NCc3ccccc3)c2)cc1` [Compound 40]: the IC50 was 9.1 µM.
In the case of `CC(C)(C)c1ccc(Oc2cccc(CNC(=S)NCc3ccc(Cl)c(C(F)(F)F)c3)c2)cc1` [Compound 41], the IC50 turned out to be 4 µM.
As for `CCCCCCNC(=S)N(O)Cc1cccc(Sc2ccc(C(C)(C)C)cc2)c1` [Compound 87], the IC50 turned out to be 9.9 µM.
On to `CC(C)(C)c1ccc(Sc2cccc(CN(O)C(=S)NCc3ccccc3)c2)cc1` [Compound 86], for which the IC50 was 5.9 µM.
Same read-out and setting: in the case of `FC(F)(F)c1cc(NC(=S)Nc2ccc(Sc3ccccn3)cc2)ccc1Cl` [Compound 223] it was 8.3 µM; in that of `CC(c1cccc(OCc2ccc(C(C)(C)C)cc2)c1)N(O)C(=S)NCc1ccccc1` (stereo not shown) [Compound 75], 8.9 µM; in that of `CCCCCCNC(=S)NCc1cccc(Oc2ccc(C(C)(C)C)cc2)c1` [Compound 42], 17.2 µM.
With `CC(C)(C)c1ccc(SCc2ccc(CN(O)C(=S)Nc3ccc(Cl)c(C(F)(F)F)c3)cc2)cc1` [Compound 95], the IC50 amounted to 4.6 µM.
As to `CC(C)(C)c1ccc(-c2ccc(CN(O)C(=S)Nc3ccc(Cl)c(C(F)(F)F)c3)cc2)cc1` [Compound 83], the IC50 is 12.4 µM.
Same read-out and setting: in the case of `O=C(Nc1ccc(Cl)c(Cl)c1)c1nc(C(F)(F)F)no1` [Compound 247] it was 4.4 µM; in that of `O=C(Nc1ccccc1)Nc1ccc(Cl)c(Cl)c1` [Compound 152], 11.4 µM.
